We go through one compound from patent publication US20260285879A1, “CDK INHIBITOR AND CRYSTAL FORM OF PHARMACEUTICALLY ACCEPTABLE SALT THEREOF, AND USE THEREOF” (priority 2023, published 2026).

One series concerns MOLM-13. The experiment in a line: In vitro tumor cell proliferation inhibition (CTG test). The note with it: hematological tumor cells MOLM-13. It counts as cell-based, human. On the procedure: (§1) The tumor cell strains were cultured in an incubator at 37° C. with 5% CO2. The cells were sub-cultured regularly, and those in the logarithmic growth phase were taken for plating. The cells were stained with trypan blue and the viable cells were counted. The cell concentration was adjusted to an appropriate level. The cell suspension was added to each well of the culture plate, and the culture medium without cells was added to the blank control wells. The culture plate was incubated overnight in an incubator at 37° C., 5% CO2, and 100% RH. […] The compound working solution was added to the cell culture plate, and DMSO at the same final concentration was added to the solvent control wells. Then the plate was returned to the incubator for 4-7 days of culture. The cell viability was detected according to the instructions of the Promega CellTiter-Glo (CTG) Luminescent Cell Viability Assay Kit (Promega-G7573).
(§2) The inhibition rate (IR) of the test compound was calculated using the following equation: […]
(§3) The inhibition rates of the compound at different concentrations were calculated in Excel, then the inhibition curve was plotted using GraphPad Prism software and relevant parameters, including the minimum inhibition rate, maximum inhibition rate, and IC50 were calculated. The IC50 was calculated using the following equation:
(§4) [formula] • X: log (concentration) • Y: response value, negatively correlated with X • HillSlope: slope factor

The test system of the next series is MDA-MB-453. The series is described as above. Format: cell-based, human. The note with it: 4-7 days. As for the experimental part:
as §1, §2, §3, §4

In a further series the test system is A2780. The series is described as above. It counts as cell-based, human. The note with it: ovarian cancer cells A2780. On the procedure: as §1, §2, §3, §4
Another series deals with HCT116. The description is as above. It counts as cell-based, human. The note with it: Rb+ colorectal cancer cells HCT116. As for the experimental part: as §1, §2, §3, §4
For another series, the system named is JHH-7. The description is as above. The note with it: Rb+ liver cancer cells JHH-7. It counts as cell-based, human. On the procedure:
as §1, §2, §3, §4

A further series relates to COLO205. The series is described as above. Format: cell-based, human. The note with it: Rb+ colorectal cancer cells COLO205. As for the experimental part:
as §1, §2, §3, §4

In another series the test system is MDA-MB-468 (Rb−). The series is described as above. Format: cell-based, human. The note with it: 4-7 days. On the procedure:
as §1, §2, §3, §4

The test system of another series is Huh-7. The series is described as above. It counts as cell-based, human. The note with it: Rb+ liver cancer cells Huh-7. As for the experimental part:
as §1, §2, §3, §4

Another series deals with HT-29. The series is described as above. Format: cell-based, human. Particulars: Rb+ colorectal cancer cells HT-29. As for the experimental part: as §1, §2, §3, §4
In the next series the test system is NCI-H211. The series is described as above. It counts as cell-based, human. The note with it: small cell lung cancer cells NCI-H211. As for the experimental part: as §1, §2, §3, §4
A further series relates to SK-MEL-5. The series is described as above. Format: cell-based, human. Particulars: melanoma SK-MEL-5. As for the experimental part: as §1, §2, §3, §4
In the next series the test system is MV-4-11. Described as above. Format: cell-based, human. The note with it: hematological tumor cells MV-4-11. As for the experimental part: as §1, §2, §3, §4
For another series, the system named is Hep3B(Rb−). Described as above. It counts as cell-based, human. Particulars: Hep3B(Rb−) liver cancer cells. On the procedure: as §1, §2, §3, §4
A short description of series [1]: Anhydrous crystalline form transformation test. It counts as physicochemical. The note with it: mixed sample of equal amounts of crystalline form A-I and A-IV.

With `CC(=O)c1c(C)c2cnc(Nc3ccc4c(c3)OC[C@@H]3CN(C5CCN(C)CC5)CCN43)nc2n(C2CCCC2)c1=O` [Compound A], the inhibitory activity entry with MOLM-13, in the series with A2780, with HCT116, in the series with JHH-7, with COLO205 and in the series on Huh-7 was “good inhibitory activity” each time. In addition, the inhibitory activity result in the series with HT-29, in the series with NCI-H211, in the series with SK-MEL-5 and in the series with MV-4-11 was “good inhibitory activity” each time. Besides, the “Maximum Inhibition Rate (%)” value with MDA-MB-453 was approximately 100%; in the series with MDA-MB-468 (Rb−), “exceeding 99%”. Further, the inhibitory effect entry with Hep3B(Rb−) is recorded as “significant inhibitory effect”. Moreover, in the series with Hep3B(Rb−), the maximum inhibition rate result is listed as “exceeding 99%”. Besides, the “Experimental results (crystalline form by XRPD)” value was “form A-I” in series [1] (n-Butanol/Anisole (v:v = 1:1), 25° C.); “form A-I” in series [1] (n-Butanol/Anisole (v:v = 1:1), 37° C.); “form A-I” in series [1] (suspension in n-Butanol, 25° C.); “form A-I” in series [1] (suspension in n-Butanol, 37° C.).
